Test results taken from PubChem BioAssay (NCI).
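Each compound was tested at five concentrations against cells in 96-well plates for 48 hours. Definition used: TGI = concentration required for complete inhibition of growth.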

What was measured:
Assay in all cases: DTP human tumour cell line panel, 48 h
OVCAR-3 ovarian = test system: OVCAR-3 ovarian
OVCAR-4 ovarian = test system: OVCAR-4 ovarian
BT-549 breast = test system: BT-549 breast
786-0 renal = test system: 786-0 renal
SR leukemia = test system: SR leukemia
RXF 393 renal = test system: RXF 393 renal
EKVX NSCLC = test system: EKVX NSCLC
SK-OV-3 ovarian = test system: SK-OV-3 ovarian
HOP-62 NSCLC = test system: HOP-62 NSCLC
MDA-MB-435 = test system: MDA-MB-435
UO-31 renal = test system: UO-31 renal
MOLT-4 leukemia = test system: MOLT-4 leukemia
HT29 colon = test system: HT29 colon
COLO 205 colon = test system: COLO 205 colon
SNB-19 CNS = test system: SNB-19 CNS
SK-MEL-5 melanoma = test system: SK-MEL-5 melanoma
UACC-257 melanoma = test system: UACC-257 melanoma
IGROV1 ovarian = test system: IGROV1 ovarian
HS 578T breast = test system: HS 578T breast
SF-295 CNS = test system: SF-295 CNS
OVCAR-8 ovarian = test system: OVCAR-8 ovarian
NCI-H522 lung = test system: NCI-H522 lung
SN12C renal = test system: SN12C renal
M14 melanoma = test system: M14 melanoma
NCI-H23 lung = test system: NCI-H23 lung
MDA-N = test system: MDA-N
CAKI-1 renal = test system: CAKI-1 renal
MCF7 breast = test system: MCF7 breast
UACC-62 melanoma = test system: UACC-62 melanoma
SK-MEL-2 melanoma = test system: SK-MEL-2 melanoma
LOX IMVI melanoma = test system: LOX IMVI melanoma
KM12 colon = test system: KM12 colon
K-562 leukemia = test system: K-562 leukemia
SW-620 colon = test system: SW-620 colon
NCI/ADR-RES ovarian = test system: NCI/ADR-RES ovarian
CCRF-CEM leukemia = test system: CCRF-CEM leukemia
HCT-116 colon = test system: HCT-116 colon
ACHN renal = test system: ACHN renal
SF-268 CNS = test system: SF-268 CNS
SF-539 CNS = test system: SF-539 CNS
A498 renal = test system: A498 renal
RPMI-8226 leukemia = test system: RPMI-8226 leukemia
DU-145 prostate = test system: DU-145 prostate
HOP-92 NSCLC = test system: HOP-92 NSCLC
T-47D breast = test system: T-47D breast
TK-10 renal = test system: TK-10 renal
NCI-H226 lung = test system: NCI-H226 lung
MALME-3M melanoma = test system: MALME-3M melanoma
MDA-MB-231 breast = test system: MDA-MB-231 breast
A549 NSCLC = test system: A549 NSCLC
OVCAR-5 ovarian = test system: OVCAR-5 ovarian
SNB-75 CNS = test system: SNB-75 CNS
HCT-15 colon = test system: HCT-15 colon
PC-3 prostate = test system: PC-3 prostate
HCC-2998 colon = test system: HCC-2998 colon
NCI-H460 lung = test system: NCI-H460 lung
U251 CNS = test system: U251 CNS
HL-60(TB) leukemia = test system: HL-60(TB) leukemia
SK-MEL-28 melanoma = test system: SK-MEL-28 melanoma

## O=c1[nH]c(=O)c2c([nH]1)[nH]c1ccccc12
OVCAR-3 ovarian
  TGI: > 100 µM
OVCAR-4 ovarian
  TGI: > 100 µM
BT-549 breast
  TGI: > 100 µM
786-0 renal
  TGI: > 100 µM
SR leukemia
  TGI: > 100 µM
RXF 393 renal
  TGI: > 100 µM
EKVX NSCLC
  TGI: > 100 µM
SK-OV-3 ovarian
  TGI: > 100 µM
HOP-62 NSCLC
  TGI: > 100 µM
MDA-MB-435
  TGI: > 100 µM
UO-31 renal
  TGI: > 100 µM
MOLT-4 leukemia
  TGI: > 100 µM
HT29 colon
  TGI: > 100 µM
COLO 205 colon
  TGI: > 100 µM
SNB-19 CNS
  TGI: > 100 µM
SK-MEL-5 melanoma
  TGI: > 100 µM
UACC-257 melanoma
  TGI: > 100 µM
IGROV1 ovarian
  TGI: > 100 µM
HS 578T breast
  TGI: > 100 µM
SF-295 CNS
  TGI: > 100 µM
OVCAR-8 ovarian
  TGI: > 100 µM
NCI-H522 lung
  TGI: > 100 µM
SN12C renal
  TGI: > 100 µM
M14 melanoma
  TGI: > 100 µM
NCI-H23 lung
  TGI: > 100 µM
MDA-N
  TGI: > 100 µM
CAKI-1 renal
  TGI: > 100 µM
MCF7 breast
  TGI: > 100 µM
UACC-62 melanoma
  TGI: > 100 µM
SK-MEL-2 melanoma
  TGI: > 100 µM
LOX IMVI melanoma
  TGI: > 100 µM
KM12 colon
  TGI: > 100 µM
K-562 leukemia
  TGI: > 100 µM
SW-620 colon
  TGI: > 100 µM
NCI/ADR-RES ovarian
  TGI: > 100 µM
CCRF-CEM leukemia
  TGI: > 100 µM
HCT-116 colon
  TGI: > 100 µM
ACHN renal
  TGI: > 100 µM
SF-268 CNS
  TGI: > 100 µM
SF-539 CNS
  TGI: > 100 µM
A498 renal
  TGI: > 100 µM
RPMI-8226 leukemia
  TGI: > 100 µM
DU-145 prostate
  TGI: > 100 µM
HOP-92 NSCLC
  TGI: > 100 µM
T-47D breast
  TGI: > 100 µM
TK-10 renal
  TGI: > 100 µM
NCI-H226 lung
  TGI: > 100 µM
MALME-3M melanoma
  TGI: > 100 µM
MDA-MB-231 breast
  TGI: > 100 µM
A549 NSCLC
  TGI: > 100 µM
OVCAR-5 ovarian
  TGI: > 100 µM
SNB-75 CNS
  TGI: > 100 µM
HCT-15 colon
  TGI: > 100 µM

## O=C(N(C1=CCCC1)N(c1ccccc1)c1ccccc1)C(F)(F)F
OVCAR-3 ovarian
  TGI: 44.4 µM
OVCAR-4 ovarian
  TGI: > 100 µM
PC-3 prostate
  TGI: > 100 µM
BT-549 breast
  TGI: 94.8 µM
786-0 renal
  TGI: 96.5 µM
SR leukemia
  TGI: 90.4 µM
RXF 393 renal
  TGI: 38.8 µM
EKVX NSCLC
  TGI: 39.1 µM
HCC-2998 colon
  TGI: 33.8 µM
SK-OV-3 ovarian
  TGI: > 100 µM
HOP-62 NSCLC
  TGI: 69.4 µM
MDA-MB-435
  TGI: 50.4 µM
UO-31 renal
  TGI: 75.6 µM
NCI-H460 lung
  TGI: 35.7 µM
U251 CNS
  TGI: 42.2 µM
MOLT-4 leukemia
  TGI: 76.2 µM
HT29 colon
  TGI: 42.6 µM
COLO 205 colon
  TGI: 40.6 µM
SNB-19 CNS
  TGI: > 100 µM
SK-MEL-5 melanoma
  TGI: 35.6 µM
UACC-257 melanoma
  TGI: 58.9 µM
SF-295 CNS
  TGI: 77 µM
OVCAR-8 ovarian
  TGI: > 100 µM
NCI-H522 lung
  TGI: 25.3 µM
SN12C renal
  TGI: 78.7 µM
M14 melanoma
  TGI: 74.5 µM
NCI-H23 lung
  TGI: > 100 µM
MDA-N
  TGI: 65.8 µM
CAKI-1 renal
  TGI: 80.4 µM
MCF7 breast
  TGI: 44.6 µM
UACC-62 melanoma
  TGI: > 100 µM
SK-MEL-2 melanoma
  TGI: 35 µM
LOX IMVI melanoma
  TGI: 31.5 µM
HL-60(TB) leukemia
  TGI: 46.8 µM
KM12 colon
  TGI: 43.9 µM
K-562 leukemia
  TGI: 68.7 µM
SW-620 colon
  TGI: 66.8 µM
NCI/ADR-RES ovarian
  TGI: 87.9 µM
CCRF-CEM leukemia
  TGI: 91.8 µM
HCT-116 colon
  TGI: 63.5 µM
ACHN renal
  TGI: 38.8 µM
SF-268 CNS
  TGI: 48.7 µM
SF-539 CNS
  TGI: 45.9 µM
SK-MEL-28 melanoma
  TGI: > 100 µM
A498 renal
  TGI: > 100 µM
DU-145 prostate
  TGI: 81.5 µM
HOP-92 NSCLC
  TGI: 33.9 µM
T-47D breast
  TGI: 65.8 µM
TK-10 renal
  TGI: > 100 µM
NCI-H226 lung
  TGI: 42.3 µM
MALME-3M melanoma
  TGI: 14.4 µM
MDA-MB-231 breast
  TGI: 34.3 µM
A549 NSCLC
  TGI: 98.4 µM
OVCAR-5 ovarian
  TGI: > 100 µM
SNB-75 CNS
  TGI: > 100 µM
HCT-15 colon
  TGI: 51.8 µM
